Measured values: patent US20250333397A1 (REMIX THERAPEUTICS INC., priority 2021, published 2025)
Where two headings read alike, the source gives them in different places.

Experiments:
Assay type in all cases: cell-based, human
[1] = test system: HTT mRNA; experiment: RT-qPCR splicing assay, HTT canonical (CJ) and alternative (AJ) junction mRNA; details: Homo sapiens; for AC50: read-out: HTT AJ (AC50, increase in AJ mRNA)
Outline: (§1)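 A673 or K562 cells were treated 24 h at 37 °C with an 11-point 3-fold compound dilution series, top dose 10 uM final, DMSO ≤0.25%. Lysates went to one-step RT-qPCR for canonical (CJ) and alternative-exon (AJ) junctions; ΔCt vs GAPDH, GUSB or PPIA, normalized to DMSO, as 2^(-ΔΔCt).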

[2] = test system: MYB mRNA; experiment: RT-qPCR splicing assay, MYB canonical (CJ) and alternative (AJ) junction mRNA; details: Homo sapiens; for AC50: read-out: MYB AJ (AC50, increase in AJ mRNA)
Outline: as §1

[3] = test system: SMN2 mRNA; experiment: RT-qPCR splicing assay panel, SMN2 canonical junction (CJ) mRNA; details: Homo sapiens, Table 4B; gene panel; read-out: SMN2 (IC50, decrease in CJ mRNA levels)
Outline: as §1

[4] = test system: Target C mRNA; experiment: RT-qPCR splicing assay panel, Target C canonical junction (CJ) mRNA; details: Homo sapiens, Table 4B; gene panel; read-out: Target C (IC50, decrease in CJ mRNA levels)
Outline: as §1

[5] = 24 h, Table 3B, A673 or K562 cells, 24 h treatment
[6] = 24 h, Table 3B, A673 or K562 cells, 24 h treatment, read-out: HTT CJ (IC50, decrease in CJ mRNA)
[7] = Table 4B, gene panel, read-out: HTT (IC50, decrease in CJ mRNA levels)
[8] = 24 h, Table 3B, A673 or K562 cells, 24 h treatment, read-out: MYB CJ (IC50, decrease in CJ mRNA)
[9] = Table 4B, gene panel, read-out: MYB (IC50, decrease in CJ mRNA levels)

SMILES	AC50 [1, 5] [µM]	IC50 [1, 6] [µM]	IC50 [1, 7] [µM]	AC50 [2, 5] [µM]	IC50 [2, 8] [µM]	IC50 [2, 9] [µM]	IC50 [3] [µM]	IC50 [4] [µM]
Cc1nc2cc(O)c(-c3cnc(N4CC[C@H](N(C)C(C)(C)C)C4)nn3)cc2o1 [Compound 857]	0.1 to 1	< 0.1	< 0.1	0.1 to 1	0.1 to 1	0.1 to 1	< 0.1	0.1 to 1
Cc1nc2cc(O)c(-c3ccc(N4CC[C@H](N(C)C(C)(C)C)C4)nn3)cc2o1 [Compound 858]	< 0.1	< 0.1	< 0.1	0.1 to 1	0.1 to 1	0.1 to 1	< 0.1	0.1 to 1
Cc1nc2cc(O)c(-c3ccc(N4CC[C@@H](N(C)C(C)(C)C)C4)nn3)cc2o1 [Compound 859]	1 to 10	1 to 10	1 to 10	1 to 10	1 to 10	1 to 10	< 0.1	1 to 10
Cc1nc2cc(O)c(-c3ccc(N4CCC(NC(C)(C)C(C)C)C4)nn3)cc2o1 (stereo not drawn) [Compound 862]	0.1 to 1	0.1 to 1	0.1 to 1	1 to 10	1 to 10	1 to 10	0.1 to 1	1 to 10
Cn1ccc2cc(O)c(-c3cnc(N4CCC(NC(C)(C)C)C4)nn3)cc2c1=O (stereo not drawn) [Compound 869]	> 10	> 10	> 10	> 10	> 10	> 10	> 10	> 10
Cc1nc2cc(O)c(-c3cnc(N4C[C@@H](C)N[C@@H](C5CC5)C4)nn3)cc2o1 [Compound 870]	1 to 10	1 to 10	1 to 10	1 to 10	1 to 10	1 to 10	1 to 10	1 to 10
Cn1ccc2cc(O)c(-c3ccc(N4CC[C@H](NC(C)(C)C)C4)nn3)cc2c1=O [Compound 873]	1 to 10	0.1 to 1	0.1 to 1	1 to 10	> 10	> 10	0.1 to 1	1 to 10
Cc1nc2cc(O)c(-c3ccc(N4CC[C@@H](NC(C)(C)C(C)C)C4)nn3)cc2o1 [Compound 874]	< 0.1	< 0.1	< 0.1	0.1 to 1	0.1 to 1	0.1 to 1	< 0.1	0.1 to 1
Cc1nc2cc(O)c(-c3ccc(N4CC[C@H](NC(C)(C)C(C)C)C4)nn3)cc2o1 [Compound 875]	< 0.1	< 0.1	< 0.1	0.1 to 1	0.1 to 1	0.1 to 1	< 0.1	0.1 to 1
